{"source": "patent US8008009B2", "about": "“Method for ProNGF assay for in vitro diagnosis of cancer in particular breast, thyroid or lung cancer and therapeutic use of ProNGF” (Biomerieux, priority 2006, dated 2011)", "format_in_all_cases": "cell-based, human", "key": {"[1]": {"test_system": "MCF-7 cells", "test": "Boyden chamber (Transwell) migration test", "conditions": "200 ng/mL in lower chamber, starving medium, 24 h, compared with starving medium alone", "method": "(§1) A “starving” medium was used, “starving” denoting a medium identical to the complete medium but without serum and supplemented with 2 μg/mL of fibronectin and 30 μg/mL of transferrin. For the various biological activity measurements, the various test molecules (ProNGF, NGF and galardin) are added to this starving medium. During the treatments, the media are renewed every 24 hours.\n(§2) The migration and invasion tests are carried out as previously described by Bracke et al. (1999, J Natl Cancer Inst, 91: 354-359). The protocols for using Boyden chambers and for invasion in collagen gel are described below.\n12-well plates containing Transwells® with a pore diameter of 12 μm are equilibrated with starving medium and placed at 37° C. under 5% CO2 for 2 hours. The medium is then drawn off and replaced, in the lower chamber, by starving medium with the various test molecules, whereas, in the upper chamber, 40 000 cells are seeded in starving medium alone. […] Each condition is carried out in duplicate; a minimum of 40 fields is counted for each condition. […]\nThe effects of ProNGF on the migration of mammary epithelial cells were comprehended by means of tests in Boyden chambers (Transwell®). Each condition was carried out in duplicate and a minimum of 40 fields was counted. […] The cells having crossed the Transwell® were then counted. *p<0.05, comparison with the starving medium alone condition."}, "[2]": {"test_system": "MCF-7 cells", "test": "Collagen type I gel invasion test", "conditions": "200 ng/mL, starving medium, 24 h", "method": "as §1, §2\nThe collagen type I gel is prepared in the following way: 2.1 mL of collagen Type I, 0.8 mL of EMEM (10×), 4.6 mL of PBS, 0.8 mL of NaHCO3 at 0.25 M and 0.15 mL of 1 M NaOH. 1.25 mL are deposited in the wells of a 6-well plate. Once the gel has solidified, 100 000 cells are seeded with starving medium and the various test molecules for 24 hours. The cells are subsequently counted and the invasion index is determined (number of deep cells related to the number of cells at the surface). Each condition is carried out in triplicate and a minimum of 45 fields is counted per condition.\nThe invasive capacity of the ProNGF-stimulated MCF-7 cells was tested in collagen type I gel. Each condition is carried out in triplicate and a minimum of 45 fields is counted per condition. […]"}, "[3]": {"test_system": "ProNGF", "test": "Anti-ProNGF Western blotting after siRNA transfection, densitometry", "conditions": "MCF-7 cells, 3 μg siRNA", "method": "The MCF-7 cells are passaged 3-4 days before transfection, so as to reach 50% confluence at the time of the experiment. Two million cells are taken up in 100 μl of Nucleofector Kit V solution and 3 μg of siRNA are added. The transfection program used on the Nucleofector is E-14. Anti-ProNGF Western blotting is carried out on the lysates recovered after 24 hours or after 48 hours, according to the protocol described in point 2.1. The relative amount of ProNGF detected by blotting is evaluated with the QuantityOne software (Bio-Rad), related to the equal loading (actin) and presented in the form of a histogram where 100% is assigned to the siGFP control condition.\nThe MCF-7 cells were transfected with 3 μg interfering RNA (siRNA) directed against GFP (siGFP) or against ProNGF (siProNGF). After 24 to 48 h of culture, the cells were lysed and ProNGF Western blotting was carried out. The relative amount of ProNGF detected by blotting was evaluated with the QuantityOne software (Bio-Rad) related to the actin equal loading and presented in the form of a histogram where 100% is assigned to the siGFP control condition (FIG. 10). […] Densitometric analysis made it possible to evaluate this decrease at 59% after 24 h of transfection."}, "[4]": {"test_system": "MDA-MB-231 cells", "test": "Cell proliferation (cell count) after siRNA transfection", "conditions": "3 μg siRNA, EMEM culture medium, counted at 24, 48 and 96 h; Mock and siGFP controls double between 24 and 48 h", "method": "The interfering RNA (siRNA) transfection experiments were carried out with the Cell Line Nucleofector kit from Amaxa and the corresponding electroporation apparatus. This system makes it possible to obtain a high efficiency of gene transfer to the nucleus (nucleofection).\nThe MDA-MB-231 cells are passaged 2 days before the transfection, so as to reach 80% confluence at the time of the experiment. The cells to be transfected are trypsinized and then counted. The cell pellet (1 million cells) is taken up in 100 μl of Nucleofector Kit V solution and 3 μg of siRNA are added. This cell suspension is transferred into an electroporation cuvette, placed in the Amaxa apparatus and electroporated according to the X-13 program. The cells are subsequently put back in culture in a well of a 6-well plate for 24-72 h. The cell proliferation is followed over time and the cells are counted at regular time intervals. Anti-Sortilin Western blotting is carried out on the lysates recovered at various times, according to the protocol described in the previous paragraph, “Expression of Sortilin”.\nMDA-MB-231 cells maintained in the EMEM culture medium were transfected either with culture medium alone (Mock), or with an interfering RNA directed against the GFP protein (siGFP) or with an interfering RNA directed against Sortilin (siSORT)."}, "[5]": {"test_system": "Sortilin", "test": "Anti-Sortilin Western blotting after siRNA transfection", "conditions": "MDA-MB-231 cells transfected with siRNA", "method": "For the Western blotting, the membranes are saturated with 4% bovine serum albumin in a solution of TBS (Tris Buffered Saline) 0.1% Tween 20 (17.54 g NaCl, 2.42 g Tris, 2 mL tween 20, QS 2 L, pH adjusted to 7.4) at ambient temperature for 2 hours. After saturation, the membranes are incubated overnight at 4° C. with the various primary antibodies: anti-Sortilin (BD612101 from BD Biosciences) at 1:2000, anti-Actin (A-2066 from Sigma) at 1:5000 in the saturation solution. After rinsing with TBS 0.1% Tween 20, the membranes are incubated for 1 hour at ambient temperature with an anti-rabbit secondary antibody (A-1949 from Sigma, France) coupled to horseradish peroxidase, at 1:20000 in the saturation solution. After rinsing, visualization is carried out with the ECL system (Pierce Interchim, France) according to the recommended data for use.\nThe MDA-MB-231 cells are passaged 2 days before the transfection, so as to reach 80% confluence at the time of the experiment. The cells to be transfected are trypsinized and then counted. The cell pellet (1 million cells) is taken up in 100 μl of Nucleofector Kit V solution and 3 μg of siRNA are added. This cell suspension is transferred into an electroporation cuvette, placed in the Amaxa apparatus and electroporated according to the X-13 program. […] The cell proliferation is followed over time and the cells are counted at regular time intervals. […]"}}}
{"substance": "NGF: recombinant nerve growth factor obtained from R&D systems", "values": [{"measurement": "cell migration", "setting": "[1]", "value": "increase their ability to migrate, in a similar manner to NGF"}]}
{"substance": "ProNGF: human recombinant nerve growth factor precursor sold by SCIL proteins", "values": [{"measurement": "cell migration", "setting": "[1]", "value": "increase their ability to migrate"}, {"measurement": "invasion (invasion index)", "setting": "[2]", "value": "stimulates MCF-7 invasion"}]}
{"substance": "siProNGF: interfering RNA directed against ProNGF; double-stranded RNA of SEQ ID No.5 and SEQ ID No.6 (chain 1 CAGUGUAUUCAAACAGUAUNN; chain 2 GUACUGUUUGAAUACACUGNN; listed as RNA, chemistry not given here)", "values": [{"measurement": "expression of the ProNGF protein (photographs of the blots)", "setting": "[3]; 24 to 48 h of culture", "value": "decreases the expression of the ProNGF protein"}, {"measurement": "decrease in expression of ProNGF (densitometric analysis)", "setting": "[3]; after 24 h of transfection, 100% assigned to siGFP control, related to actin", "value": 59, "unit": "%"}]}
{"substance": "siSORT: interfering RNA which decreases the expression of Sortilin; double-stranded RNA of SEQ ID No.3 and SEQ ID No.4 (chain 1 GGUGGUGUUAACAGCAGAGNN; chain 2 CUCUGCUGUUAACACCACCNN; listed as RNA, chemistry not given here)", "values": [{"measurement": "number of MDA-MB-231 cells in culture over time", "setting": "[4]", "value": "does not increase over time"}, {"measurement": "level of expression of the Sortilin protein", "setting": "[5]", "value": "decreased the level of expression of the Sortilin protein"}]}
